ChEMBL document CHEMBL1201862, “PubChem BioAssay data set” (2004)
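96-well plates; 48 h exposure; 5 concentrations. Endpoints by linear interpolation between flanking doses. Not reached: highest tested concentration assigned. Here, GI50 denotes the concentration required for 50% inhibition of growth.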 Calls of active or inactive are those of the source. Cut-off read from the data, not from the text of the source: active = GI50 up to about 1.1 µM and inactive = higher.

Key:
Assay in all cases: NCI tumour cell line growth inhibition, 48 h
[1] = system: OVCAR-4
[2] = system: DMS-273
[3] = system: UACC-257
[4] = system: KM12
[5] = system: SF-539
[6] = system: SK-OV-3
[7] = system: DLD-1
[8] = system: DMS-114
[9] = system: RXF 393
[10] = system: SNB-78
[11] = system: SW-620
[12] = system: SF-268
[13] = system: A498
[14] = system: MOLT-4
[15] = system: SNB-75
[16] = system: HOP-62
[17] = system: SF-295
[18] = system: UACC-62
[19] = system: HL-60
[20] = system: K562
[21] = system: TK-10
[22] = system: Malme-3M
[23] = system: COLO 205
[24] = system: SNB-19
[25] = system: ACHN
[26] = system: SK-MEL-5
[27] = system: UO-31
[28] = system: M14
[29] = system: 786-0
[30] = system: LXFL 529
[31] = system: HCT-116
[32] = system: HCT-15
[33] = system: U-251
[34] = system: RXF 631
[35] = system: LOX IMVI
[36] = system: M19-MEL
[37] = system: HCC 2998
[38] = system: OVCAR-5
[39] = system: RPMI-8226
[40] = system: SN12C
[41] = system: A549
[42] = system: OVCAR-3
[43] = system: CCRF-CEM
[44] = system: OVCAR-8
[45] = system: IGROV-1
[46] = system: HT-29
[47] = system: EKVX
[48] = system: HOP-92
[49] = system: HOP-18
[50] = system: SK-MEL-2
[51] = system: NCI-H460
[52] = system: CAKI-1
[53] = system: KM-20L2
[54] = system: NCI-H23
[55] = system: SK-MEL-28
[56] = system: SR
[57] = system: NCI-H522
[58] = system: NCI-H226

Cc1ccc(S(=O)(=O)N/N=C/C(C)C)cc1
GI50 [1]: > 100 µM (inactive)
GI50 [2]: > 100 µM (inactive)
GI50 [3]: > 100 µM (inactive)
GI50 [4]: > 100 µM (inactive)
GI50 [5]: > 100 µM (inactive)
GI50 [6]: > 100 µM (inactive)
GI50 [7]: > 100 µM (inactive)
GI50 [8]: > 100 µM (inactive)
GI50 [9]: > 100 µM (inactive)
GI50 [10]: > 100 µM (inactive)
GI50 [11]: > 100 µM (inactive)
GI50 [12]: > 100 µM (inactive)
GI50 [13]: > 100 µM (inactive)
GI50 [14]: > 100 µM (inactive)
GI50 [15]: 70.6 µM (inactive)
GI50 [16]: > 100 µM (inactive)
GI50 [17]: > 100 µM (inactive)
GI50 [18]: > 100 µM (inactive)
GI50 [19]: > 100 µM (inactive)
GI50 [20]: > 100 µM (inactive)
GI50 [21]: > 100 µM (inactive)
GI50 [22]: > 100 µM (inactive)
GI50 [23]: > 100 µM (inactive)
GI50 [24]: > 100 µM (inactive)
GI50 [25]: > 100 µM (inactive)
GI50 [26]: > 100 µM (inactive)
GI50 [27]: > 100 µM (inactive)
GI50 [28]: > 100 µM (inactive)
GI50 [29]: > 100 µM (inactive)
GI50 [30]: > 100 µM (inactive)
GI50 [31]: > 100 µM (inactive)
GI50 [32]: > 100 µM
GI50 [33]: > 100 µM (inactive)
GI50 [34]: > 100 µM (inactive)
GI50 [35]: > 100 µM (inactive)
GI50 [36]: > 100 µM (inactive)
GI50 [37]: > 100 µM (inactive)
GI50 [38]: > 100 µM (inactive)
GI50 [39]: > 100 µM (inactive)
GI50 [40]: > 100 µM (inactive)
GI50 [41]: > 100 µM (inactive)
GI50 [42]: > 100 µM (inactive)
GI50 [43]: > 100 µM (inactive)
GI50 [44]: > 100 µM (inactive)
GI50 [45]: > 100 µM (inactive)
GI50 [46]: > 100 µM (inactive)
GI50 [47]: > 100 µM (inactive)
GI50 [48]: 24.9 µM (inactive)
GI50 [49]: > 100 µM (inactive)
GI50 [50]: > 100 µM (inactive)
GI50 [51]: > 100 µM (inactive)
GI50 [52]: > 100 µM (inactive)
GI50 [53]: > 100 µM (inactive)
GI50 [54]: > 100 µM (inactive)

c1ccc(C2N3CCCCC3[C@@H]3c4[nH]c5ccccc5c4CCN23)nc1 (stereo partly drawn)
GI50 [1]: > 100 µM (inactive)
GI50 [2]: > 100 µM (inactive)
GI50 [3]: > 100 µM (inactive)
GI50 [5]: > 100 µM (inactive)
GI50 [55]: > 100 µM (inactive)
GI50 [6]: > 100 µM (inactive)
GI50 [7]: > 100 µM (inactive)
GI50 [8]: 27.4 µM (inactive)
GI50 [9]: 33.3 µM (inactive)
GI50 [10]: 49.7 µM (inactive)
GI50 [11]: > 100 µM (inactive)
GI50 [12]: 47.9 µM (inactive)
GI50 [13]: > 100 µM (inactive)
GI50 [14]: > 100 µM (inactive)
GI50 [15]: 68.7 µM (inactive)
GI50 [16]: > 100 µM (inactive)
GI50 [17]: > 100 µM (inactive)
GI50 [18]: 96.8 µM (inactive)
GI50 [19]: 59.7 µM (inactive)
GI50 [20]: 94 µM (inactive)
GI50 [21]: > 100 µM (inactive)
GI50 [24]: > 100 µM (inactive)
GI50 [25]: > 100 µM (inactive)
GI50 [26]: > 100 µM (inactive)
GI50 [27]: > 100 µM (inactive)
GI50 [28]: > 100 µM (inactive)
GI50 [29]: > 100 µM (inactive)
GI50 [30]: > 100 µM (inactive)
GI50 [31]: > 100 µM (inactive)
GI50 [32]: > 100 µM
GI50 [33]: > 100 µM (inactive)
GI50 [34]: > 100 µM (inactive)
GI50 [36]: > 100 µM (inactive)
GI50 [38]: > 100 µM (inactive)
GI50 [39]: > 100 µM (inactive)
GI50 [40]: > 100 µM (inactive)
GI50 [41]: > 100 µM (inactive)
GI50 [42]: > 100 µM (inactive)
GI50 [43]: > 100 µM (inactive)
GI50 [44]: > 100 µM (inactive)
GI50 [45]: > 100 µM (inactive)
GI50 [46]: > 100 µM (inactive)
GI50 [47]: > 100 µM (inactive)
GI50 [48]: > 100 µM (inactive)
GI50 [49]: > 100 µM (inactive)
GI50 [50]: > 100 µM (inactive)
GI50 [51]: > 100 µM (inactive)
GI50 [52]: > 100 µM (inactive)
GI50 [53]: > 100 µM (inactive)
GI50 [54]: > 100 µM (inactive)

O=[N+]([O-])C1Cc2ccccc2OC1c1ccccc1 (stereo not drawn)
GI50 [1]: > 100 µM (inactive)
GI50 [2]: 60.4 µM (inactive)
GI50 [3]: > 100 µM (inactive)
GI50 [4]: > 100 µM (inactive)
GI50 [5]: 31.2 µM (inactive)
GI50 [55]: 86.1 µM (inactive)
GI50 [6]: 96.6 µM (inactive)
GI50 [7]: 35.3 µM (inactive)
GI50 [8]: > 10 µM (inactive)
GI50 [9]: 21.8 µM (inactive)
GI50 [10]: 21.4 µM (inactive)
GI50 [11]: > 100 µM (inactive)
GI50 [12]: 36.1 µM (inactive)
GI50 [13]: > 100 µM (inactive)
GI50 [14]: 23.4 µM (inactive)
GI50 [15]: 19.9 µM (inactive)
GI50 [16]: 33.5 µM (inactive)
GI50 [17]: 40.5 µM (inactive)
GI50 [18]: 55.3 µM (inactive)
GI50 [19]: 39.4 µM (inactive)
GI50 [20]: 26.8 µM (inactive)
GI50 [21]: 77.1 µM (inactive)
GI50 [22]: > 100 µM (inactive)
GI50 [56]: 15.3 µM (inactive)
GI50 [23]: 69 µM (inactive)
GI50 [57]: 26.6 µM (inactive)
GI50 [58]: > 100 µM (inactive)
GI50 [24]: 41.9 µM (inactive)
GI50 [25]: 66.7 µM (inactive)
GI50 [26]: > 100 µM (inactive)
GI50 [27]: > 100 µM (inactive)
GI50 [28]: > 100 µM (inactive)
GI50 [29]: 35.3 µM (inactive)
GI50 [30]: > 100 µM (inactive)
GI50 [31]: 66.4 µM (inactive)
GI50 [33]: 40.6 µM (inactive)
GI50 [34]: 62.2 µM (inactive)
GI50 [35]: 15.3 µM (inactive)
GI50 [36]: > 100 µM (inactive)
GI50 [37]: > 100 µM (inactive)
GI50 [38]: > 100 µM (inactive)
GI50 [40]: 21.7 µM (inactive)
GI50 [41]: > 100 µM (inactive)
GI50 [42]: > 100 µM (inactive)
GI50 [43]: 30.8 µM (inactive)
GI50 [44]: 89.7 µM (inactive)
GI50 [45]: 64.4 µM (inactive)
GI50 [46]: 83.8 µM (inactive)
GI50 [47]: > 100 µM (inactive)
GI50 [48]: 83.2 µM (inactive)
GI50 [49]: > 100 µM (inactive)
GI50 [52]: 24.1 µM (inactive)
GI50 [53]: > 100 µM (inactive)
GI50 [54]: 92.9 µM (inactive)
